From patent publication US20230407373A1 (priority 2020, published 2023)

What was measured:
gRNA of HCoV-OC43 = format: binding
HCoV-OC43 gRNA and sgRNA = format: binding

## SLTM: host protein, UniProt Q9NWH9
gRNA of HCoV-OC43; type g_36_m, HCoV-OC43-infected HCT-8 cells, 36 hpi, Probe I
  target (spectral count): 10
gRNA of HCoV-OC43; type g_36_m, uninfected-probe control, 36 hpi, Probe I
  background (spectral count): 1
gRNA of HCoV-OC43; type n_48_v: 48 hours post-infection, infected cells, OC43 Probe I, unweighted spectral count
  target (spectral count, OC43 Probe I RNP capture): 11
gRNA of HCoV-OC43; type n_48_v: 48 hours post-infection, no-probe control on infected cells
  background (spectral count, no-probe control): 1
HCoV-OC43 gRNA and sgRNA; 36 hpi, type n_36_v, tested against no-probe control, FDR<10%
  target (unweighted spectral count, OC43 Probe II capture): 6
HCoV-OC43 gRNA and sgRNA; type n_48_v, 48 hpi, OC43 Probe II capture on infected cells
  target (unweighted spectral count, OC43 Probe II): 8
HCoV-OC43 gRNA and sgRNA; type n_48_v, 48 hpi, no-probe control on infected cells
  background (unweighted spectral count, no-probe control): 1
